Measured values reported in ChEMBL document CHEMBL1141614, “Selective COX-2 inhibitors. Part 2: synthesis and biological evaluation of 4-benzylideneamino- and 4-phenyliminomethyl-benzenesulfonamides” (Bioorg Med Chem, 2008).

Experiments:
[1] = target: T1, Prostaglandin G/H synthase 2 (Homo sapiens, UniProt P35354); assay: Inhibition of COX2 in human whole blood assessed as effect on LPS-stimulated PGE2 production
T1 sequence (P35354 whole entry): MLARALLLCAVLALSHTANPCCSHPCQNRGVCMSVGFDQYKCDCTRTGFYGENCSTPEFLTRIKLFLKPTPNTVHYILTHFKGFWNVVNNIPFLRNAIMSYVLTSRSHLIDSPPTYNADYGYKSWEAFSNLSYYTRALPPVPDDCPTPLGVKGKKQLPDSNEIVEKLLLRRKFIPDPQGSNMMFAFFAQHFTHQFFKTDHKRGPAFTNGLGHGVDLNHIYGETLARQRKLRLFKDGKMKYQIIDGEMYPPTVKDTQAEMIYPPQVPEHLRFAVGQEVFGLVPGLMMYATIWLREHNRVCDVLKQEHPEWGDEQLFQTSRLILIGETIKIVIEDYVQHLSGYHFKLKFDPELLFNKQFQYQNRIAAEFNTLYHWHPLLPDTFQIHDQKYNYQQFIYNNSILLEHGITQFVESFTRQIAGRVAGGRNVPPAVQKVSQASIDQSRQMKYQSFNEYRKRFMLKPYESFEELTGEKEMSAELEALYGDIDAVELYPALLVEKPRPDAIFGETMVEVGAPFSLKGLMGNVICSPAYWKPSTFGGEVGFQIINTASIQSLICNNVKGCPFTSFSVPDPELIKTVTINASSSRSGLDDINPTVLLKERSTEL

[2] = target: Prostaglandin G/H synthase 1 (Homo sapiens, UniProt P23219); format: tissue-based, Blood
Chain of Prostaglandin G/H synthase 1 (P23219 whole entry): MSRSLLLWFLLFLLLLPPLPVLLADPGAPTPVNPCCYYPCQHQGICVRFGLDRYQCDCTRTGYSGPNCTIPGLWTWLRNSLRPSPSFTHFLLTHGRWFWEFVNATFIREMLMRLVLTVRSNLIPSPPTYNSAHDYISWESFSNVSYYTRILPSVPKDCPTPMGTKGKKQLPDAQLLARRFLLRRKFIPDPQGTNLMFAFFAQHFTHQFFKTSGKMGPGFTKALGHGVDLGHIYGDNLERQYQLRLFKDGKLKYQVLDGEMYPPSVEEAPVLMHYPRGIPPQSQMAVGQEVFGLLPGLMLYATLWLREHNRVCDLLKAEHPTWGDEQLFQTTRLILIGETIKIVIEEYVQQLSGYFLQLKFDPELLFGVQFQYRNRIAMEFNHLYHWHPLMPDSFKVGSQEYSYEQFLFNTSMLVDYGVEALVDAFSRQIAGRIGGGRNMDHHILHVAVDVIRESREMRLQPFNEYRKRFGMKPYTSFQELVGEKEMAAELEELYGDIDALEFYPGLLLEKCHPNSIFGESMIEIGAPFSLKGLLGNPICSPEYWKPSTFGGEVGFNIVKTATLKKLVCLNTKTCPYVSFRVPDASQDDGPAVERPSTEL
Description: Inhibition of COX1 in human whole blood assessed as effect on A-23187-stimulated TxB2 production

`NS(=O)(=O)c1ccc(/N=C/c2ccc([N+](=O)[O-])cc2)cc1` gave an IC50 [1] of 3 µM and an IC50 [2] of 141 µM.
With `CN(C)c1ccc(/N=C/c2ccc(S(N)(=O)=O)cc2)cc1` the IC50 [1] was 1.95 µM and the IC50 [2] was 64.4 µM.
Work on `COC(=O)c1cc(/N=C/c2ccc(S(N)(=O)=O)cc2)ccc1O` yielded an IC50 [1] of 3.13 µM and an IC50 [2] of 24 µM.
`NS(=O)(=O)c1ccc(/N=C/c2ccc(C(F)(F)F)cc2)cc1` gave an IC50 [1] of 4.6 µM and an IC50 [2] of 182 µM.
`COc1ccc(/N=C/c2ccc(S(N)(=O)=O)cc2)cc1` gave an IC50 [1] of 4.14 µM and an IC50 [2] of 60.7 µM.
`CN(C)c1ccc(/C=N/c2ccc(S(N)(=O)=O)cc2)cc1` was tested, and the IC50 [1] was 3.36 µM and the IC50 [2] was 196 µM.
For `NS(=O)(=O)c1ccc(/C=N/c2ccc(C(F)(F)F)cc2)cc1`, the IC50 [1] was 6.54 µM and the IC50 [2] was 43.9 µM.
Molecule `NS(=O)(=O)c1ccc(/N=C/c2ccccc2)cc1` has an IC50 [1] of 2.87 µM and an IC50 [2] of 108 µM.
`Cc1ccc(/N=C/c2ccc(S(N)(=O)=O)cc2)cc1` gave an IC50 [1] of 4.62 µM and an IC50 [2] of 63.2 µM.
`CCOc1cc(/C=N/c2ccc(S(N)(=O)=O)cc2)ccc1O` gave an IC50 [1] of 3.69 µM and an IC50 [2] of 47.9 µM.
In the case of `COc1cc(/C=N/c2ccc(S(N)(=O)=O)cc2)ccc1O`, the IC50 [1] is reported as 2.95 µM and the IC50 [2] is reported as 78.2 µM.
`COc1ccc(/C=N/c2ccc(S(N)(=O)=O)cc2)cc1O` was tested, and the IC50 [1] was 3.5 µM and the IC50 [2] was 43.8 µM.
Work on `COc1cc(/C=N/c2ccc(S(N)(=O)=O)cc2)cc(OC)c1OC` yielded an IC50 [1] of 2.93 µM and an IC50 [2] of 167 µM.
Work on `Cc1ccc(/C=N/c2ccc(S(N)(=O)=O)cc2)cc1` yielded an IC50 [1] of 4.94 µM and an IC50 [2] of 190 µM.
`NS(=O)(=O)c1ccc(/N=C/c2ccc(F)cc2)cc1` gave an IC50 [1] of 2.22 µM and an IC50 [2] of 159 µM.
Work on `COc1ccc(/N=C/c2ccc(S(N)(=O)=O)cc2)cc1OC` yielded an IC50 [1] of 4.28 µM and an IC50 [2] of 31.3 µM.
`COC(=O)c1ccc(/C=N/c2ccc(S(N)(=O)=O)cc2)cc1` gave an IC50 [1] of 2.73 µM and an IC50 [2] of 184 µM.
`NS(=O)(=O)c1ccc(/N=C/c2ccc(O)c(C(=O)O)c2)cc1` showed an IC50 [1] of 0.74 µM and an IC50 [2] of 85.1 µM.
`COc1cccc(/C=N/c2ccc(S(N)(=O)=O)cc2)c1` was tested, and the IC50 [1] was 5.45 µM and the IC50 [2] was 383 µM.
Molecule `COc1ccc(/C=N/c2ccc(S(N)(=O)=O)cc2)cc1OC` has an IC50 [1] of 3.09 µM and an IC50 [2] of 110 µM.
`NS(=O)(=O)c1ccc(/N=C/c2cccc(O)c2)cc1` showed an IC50 [1] of 2.78 µM and an IC50 [2] of 38.2 µM.
`NS(=O)(=O)c1ccc(/N=C/c2ccc(O)c(O)c2)cc1` showed an IC50 [1] of 2.85 µM and an IC50 [2] of 23.2 µM.
In the case of `COC(=O)c1ccc(/N=C/c2ccc(S(N)(=O)=O)cc2)cc1`, the IC50 [1] is reported as 3.72 µM and the IC50 [2] is reported as 56.7 µM.
For `NS(=O)(=O)c1ccc(/C=N/c2ccc(F)cc2)cc1`, the IC50 [1] was 4.38 µM and the IC50 [2] was 80.2 µM.
With `COc1ccc(/C=N/c2ccc(S(N)(=O)=O)cc2)cc1` the IC50 [1] was 9.88 µM and the IC50 [2] was 314 µM.
With `COc1cc(/C=N/c2ccc(S(N)(=O)=O)cc2)cc(OC)c1O` the IC50 [1] was 2.71 µM and the IC50 [2] was 156 µM.
`NS(=O)(=O)c1ccc(/C=N/c2ccc(O)cc2)cc1` gave an IC50 [1] of 5.09 µM and an IC50 [2] of 51.8 µM.
For `COc1cc(/C=N/c2ccc(S(N)(=O)=O)cc2)cc(OC)c1`, the IC50 [1] was 3.4 µM and the IC50 [2] was 110 µM.
Work on `NS(=O)(=O)c1ccc(/C=N/c2ccccc2)cc1` yielded an IC50 [1] of 3.11 µM and an IC50 [2] of 63.6 µM.
Work on `NS(=O)(=O)c1ccc(/N=C/c2cccc([N+](=O)[O-])c2)cc1` yielded an IC50 [1] of 6.75 µM and an IC50 [2] of 106 µM.
For `NS(=O)(=O)c1ccc(/N=C/c2ccc(O)cc2)cc1`, the IC50 [1] was 3.42 µM and the IC50 [2] was 148 µM.
